# Structures can show the parent of a compound that is named as a salt.
# Columns and labels:
# MRSA = assay: Dispersion of preformed MRSA biofilm; type: cell-based, Staphylococcus aureus; conditions: concentration that disperses 50% of a pre-formed biofilm
# Procedure: A dose-response study was then initiated in which both the IC50 and EC50 value of each compound towards the bacterial strains were determined (Table 1). Here, IC50 is defined as the concentration of compound that inhibits 50% biofilm development while EC50 is defined as the concentration of compound that disperses 50% of a pre-formed biofilm.
# Procedure to Determine the Dispersal Effect of Test Compounds on E. faecium, MRSA and S. epidermidis Preformed Biofilms:
# Dispersion assays were performed by taking an overnight culture of bacterial strain and subculturing it at an OD600 of 0.01 into the necessary media (brain heart infusion for E. faecium, tryptic soy broth with a 0.5% glucose supplement (TSBG) for MRSA and tryptic soy broth with a 0.5% glucose supplement and a 3.0% NaCl supplement (TGN) for S. epidermidis. The resulting bacterial suspension was aliquoted (100 μL) into the wells of a 96-well PVC microtiter plate. Plates were then wrapped in GLAD Press n′ Seal® followed by an incubation under stationary conditions at ambient temperature to establish the biofilms. After 24 h, the media was discarded from the wells and the plates were washed thoroughly with water. Stock solutions of predetermined concentrations of the test compound were then made in the necessary media. These stock solutions were aliquoted (100 μL) into the wells of the 96-well PVC microtiter plate with the established biofilms. Media alone was added to a subset of the wells to serve as a control. Sample Plates were then incubated for 24 h at 37° C. After incubation, the media was discarded from the wells and the plates were washed thoroughly with water. Plates were then stained with 100 μL of 0.1% solution of crystal violet (CV) and then incubated at ambient temperature for 30 min. Plates were washed with water again and the remaining stain was solubilized with 200 μL of 95% ethanol. A sample of 125 μL of solubilized CV stain from each well was transferred to the corresponding wells of a polystyrene microtiter dish. Biofilm dispersion was quantitated by measuring the OD540 of each well in which a negative control lane wherein no biofilm was formed served as a background and was subtracted out.
# [1] = tested on: E. faecium, MRSA and S. epidermidis; assay: Mitigating effects of zinc on biofilm formation inhibition; type: cell-based; conditions: for effect of Zn(II) on ability to inhibit biofilm development: 50.0 μM compound, 25.0-200.0 μM ZnCl2, dose-dependent, hydrochloride
# Text: Next, Zn(II) homeostasis was examined. Zn(II) has been implicated in the pathogenesis of Gram-positive bacterial infections and may be an important regulator of biofilm formation (Conrady, D. G.; Brescia, C. C.; Horii, K.; Weiss, A. A.; Hassett, D. J.; Herr, A. B. Proceedings of the National Academy of Sciences of the United States of America 2008, 105, 19456-19461).
# Procedure to Determine the Mitigating Effects of Zinc on E. faecium, MRSA and S. epidermidis Biofilm Formation Inhibition Induced by 2-(2-Amino-1H-Benzo[d]Imidazol-6-Ylcarbamoyl)-3,4,5,6-Tetrachlorobenzoic Acid Hydrochloride:
# Inhibition assays were performed by taking an overnight culture of bacterial strain and subculturing it at an OD600 of 0.01 into the necessary media (brain heart infusion for E. faecium, tryptic soy broth with a 0.5% glucose supplement (TSBG) for MRSA, Luria-Bertani (LB) media for MDRAB, Luria-Bertani media without NaCl (LBNS) for PAO1 and tryptic soy broth with a 0.5% glucose supplement and a 3.0% NaCl supplement (TGN) for S. epidermidis. Stock solutions of 50.0 μM 2-(2-amino-1H-benzo[d]imidazol-6-ylcarbamoyl)-3,4,5,6-tetrachlorobenzoic acid hydrochloride were then made in the necessary media. Samples were then doped with 25.0, 50.0, 75.0, 100.0, 150.0 and 200.0 μM ZnCl2 with controls in which no test compound was added to examine effects of 200.0 μM ZnCl2 on biofilm formation. These stock solutions were aliquoted (100 μL) into the wells of the 96-well PVC microtiter plate. Sample plates were then wrapped in GLAD Press n′ Seal® followed by an incubation under stationary conditions for 24 h at 37° C. After incubation, the media was discarded from the wells and the plates were washed thoroughly with water. Plates were then stained with 100 μL of 0.1% solution of crystal violet (CV) and then incubated at ambient temperature for 30 min. Plates were washed with water again and the remaining stain was solubilized with 200 μL of 95% ethanol. A sample of 125 μL of solubilized CV stain from each well was transferred to the corresponding wells of a polystyrene microtiter dish. Biofilm inhibition was quantitated by measuring the OD540 of each well in which a negative control lane wherein no biofilm was formed served as a background and was subtracted out.
smiles,measurement,setting,value
"Nc1nc2ccc(NC(=O)c3c(Cl)c(Cl)c(Cl)c(Cl)c3C(=O)O)cc2[nH]1 [Compound 3, 2-(2-amino-1H-benzo[d]imidazol-6-ylcarbamoyl)-3,4,5,6-tetrachlorobenzoic acid hydrochloride]",EC50,MRSA; Staphylococcus aureus,2920 nM
same,EC50,MRSA; hydrochloride,2900 nM
same,effect of Zn(II) on ability to inhibit biofilm development,[1],suppressed the ability of 3 to inhibit biofilm development
same,effect of Zn(II) on ability to inhibit biofilm development,"[1]; listed as 2-(2-amino-1H-benzo[d]imidazol-6-ylcarbamoyl)-3,4,5,6-tetrachlorobenzoic acid hy",mitigate the biofilm inhibition response
same,biofilm formation inhibition when supplemented with ZnCl2,[1]; 200 μM ZnCl2,unable to inhibit biofilm formation
